Results from US8246944B2, “Immunotherapeutic agent for the combined treatment of tuberculosis in association with other drugs” (Archivel Farma, S.L., priority 2003, dated 2012).

Assays:
[1] = test system: virulent strain of Mycobacterium tuberculosis; test: […]; bacillary concentration in left lung and spleen; type: in vivo, C57BL/6 mice; details: Control: isoniazid alone 25 mg/kg per day, 5 days per week, weeks 9-17
[2] = test system: virulent strain of Mycobacterium tuberculosis; test: as above; type: in vivo, BALB/c mice; details: Control: isoniazid only 25 mg/kg per day, 5 days per week, 6 weeks (weeks 9-15); killed week 15

Compound: NNC(=O)c1ccncc1 [isoniazid]
- Bacillary concentration, lungs, Week 15 ([1]; sacrificed week 15): 2.34 ± 0.24 log10 UFC/mL
- Bacillary concentration, spleen, Week 15 ([1]; sacrificed week 15): 1.47 ± 0.44 log10 UFC/mL
- Bacillary concentration, lungs, Week 28 ([1]; sacrificed week 28): 3.86 ± 0.41 log10 UFC/mL
- Bacillary concentration, spleen, Week 28 ([1]; sacrificed week 28): 3.84 ± 0.48 log10 UFC/mL
- Bacillary concentration, Lung [2]: 7.5 ± 2.89 UFC/mL
- Bacillary concentration, Spleen [2]: 0.75 ± 0.33 UFC/mL
